In patent US20240424019A1, “SHP1 MODIFIED DENDRITIC CELLS AND EXTRACELLULAR VESICLES DERIVED THEREFROM AND ASSOCIATED METHODS” (BOARD OF REGENTS, THE UNIVERSITY OF TEXAS SYSTEM, priority 2021, published 2024):

How the values were obtained:
[1] = tested on: B16-FLT3L melanoma; assay: B16-FLT3L melanoma model; assay type: in vivo, mouse; details: VitE plus ICT
[2] = tested on: human MoDCs; assay: DC activation markers on human MoDCs by flow cytometry; assay type: cell-based
Text: Human leukocyte concentrate (buffy coat) was collected from healthy blood donor volunteers by MD Anderson Blood Donor Center. Written informed consent was obtained from all participating blood donors and the use of anonymized leftover specimens for scientific purposes was approved by the Ethics Committee of the MD Anderson Cancer Center. For the generation of monocyte-derived dendritic cells (MoDCs), peripheral blood of healthy individuals was applied to a Ficoll gradient (BD), and mononuclear cells were freshly isolated and cultured in the dish in a humidified incubator for 1 hour to let monocytes adhere. After removing the medium with non-adherent cells, the adherent monocytes were collected through vigorous pipetting. […]
We assessed the expression of co-stimulatory molecules on human MoDCs treated with indicated dietary components and nutritional supplements including VitE (50 μg/ml). […] The mean fluorescence intensity (MFI) of each molecule was normalized to the MFI of the vehicle-treated group measured by flow cytometry. We then quantitated DC activation markers CD40, CD86, and HLA-DR on human MoDCs treated with vehicle or VitE (50 μg/ml) for 48 h in the presence of LPS (100 ng/ml), as calculated by relative mean fluorescence intensity (MFI) compared to controls.

[3] = tested on: H-2Kb-SIINFEKL; assay: Antigen cross-presentation: H-2Kb-SIINFEKL on OVA-loaded DCs by flow cytometry; assay type: cell-based, mouse
Text: FIG. 4A: Flow cytometric analysis and quantification of H-2Kb-SIINFEKL in OVA-loaded sgCtrl or sgPtpn6-DC2.4 cells without or with TCM treatment (n=3). FIG. 4B: FCM analysis and quantification of H-2K^b-SIINFEKL in the vehicle or VitE-treated BMDCs with or without TCM treatment (n=5). Error bars, s.e.m. ns, no significant. *P<0.05, **P<0.01. ***P<0.001. ****P<0.0001.
The most critical function of DCs is the cross-presentation of tumor antigens to T-cells (Guermonprez et al., 2002). We assessed the membrane MHC-I complexes that were loaded with intracellularly processed OVA-derived peptide (H-2Kb-SIINFEKL) on OVA-loaded DCs with VitE-treatment. […] Therefore, VitE administration enhances the activation and antigen cross-presentation function of DCs to provoke antigen-specific antitumor T-cell immunity. We quantified H-2Kb-SIINFEKL in the vehicle-or VitE-treated sgCtrl-DC2.4 or sgPtpn6-DC2.4 (n=3). […] Thus. SHP1 inhibition in DCs by VitE treatment or Ptpn6 knockout enhances antigen cross-presentation that boosts CD8+ T-cell antitumor immunity.

[4] = tested on: 4T1 tumors; assay: Orthotopic 4T1 TNBC tumor model; assay type: in vivo, mouse
Procedure: FIG. 6A: Diagram of the experimental paradigm (top) and tumor growth curves (bottom) of orthotopic B16-GMCSF tumor in mice vaccinated with or without GVAX (s.c. at day 1, 4, 7), then treated with vehicle or VitE (50 mg/kg/day daily by oral gavage administration from day 4 to day 20) (n=6/group). FIG. 6B: Tumor weight of 4T1 tumors from mice treated with vehicle. GVAX, ICT (200 μg/mouse anti-PDI and 100 μg/mouse anti-CTLA4 by i.p. at day 7, 10, 13), or GVAX+ICT in combination with vehicle or VitE (50 mg/kg/day daily by oral gavage administration from day 4 to day 25) (n=4) at day 25 after tumor inoculation. FIG. 6C: Flow cytometric analysis (left) and quantification (right) of gp70 tetramer+CD8^+ T cells in 4T1 tumors at day 14 post-implantation with indicated treatments (n=5/group). FIG. 6D: Kaplan-Meier survival curve of 4T1 tumor-bearing mice treated with vehicle, low dosage of Doxorubicin (Dox, 5 mg/kg by i.v.). ICT (200 μg/mouse anti-PD1 and 100 μg/mouse anti-CTLA4 by i.p. at day 7, 10, 13). or Dox+ICT along with vehicle or VitE (n=10). FIG. 6E: Measurement of maximal tumor diameter in HY1936 KPC tumor-bearing mice treated with gemcitabine (GEM, 25 mg/kg by i.p.) and ICT (anti-PDI/anti-CTLA4) along with vehicle or VitE (n=5). FIG. 6F: Kaplan-Meier survival curve of HY19636 KPC tumor-bearing mice treated with vehicle, GEM (gemcitabine, 25 mg/kg by i.p.), GEM+ICT (anti-PDI/anti-CTLA4) plus vehicle or VitE (n=6). Error bars, s.e.m. ns, no significant. *P<0.05. ***P<0.001, ****P<0.0001.
Syngeneic orthotopic PDAC tumors were established by surgical implantation.
Control groups received vehicle (PBS) without the active product.
Where indicated, mice were vaccinated subcutaneously on their contralateral flank with either PBS or 1.0×10^6 35 Gy-irradiated GM-CSF-secreting B16 cells or GM-CSF-secreting 4T1 cells (GVAX) on days 1, 4, and 7 post-tumor injections.
For chemo combination treatment, HY19636 KPC tumor-bearing mice were treated with gemcitabine (GEM) at 25 mg/kg body weight by i.p. injection once a week from day 7 and 4T1 TNBC tumor-bearing mice were given with doxorubicin (Dox, 5 mg/kg body weight) by i.v. once a week from day 10. The chemotherapeutic doses and schedules used in this study are below or within the range of the concentrations used in the clinic after converting drug doses between species.

[5] = tested on: RAB34; assay: Immunoblot of Rab34 proteins in BMDCs; assay type: cell-based, mouse; details: VitE vs vehicle, 48 hr
[6] = doxorubicin+ICT+VitE vs doxorubicin+ICT

## Cc1c(C)c2c(c(C)c1O)CC[C@@](C)(CCC[C@H](C)CCC[C@H](C)CCCC(C)C)O2 [VitE, D-α-Tocopherol]
[1]
  ICT response: effectively enhanced their ICT responses
[2]; VitE 50 μg/ml 48 h, LPS 100 ng/ml
  expression of DC activation markers (relative MFI): significantly increased expression of DC activation markers CD40, CD86, HLA-DR
[2]; VitE 50 μg/ml vs VitC, VitD, VitB, VitB2, VitB12, DHA, 48 h then LPS 24 h
  DC activation compared with other common nutritional supplements: most effectively activated DCs
[3]; VitE treatment of SHP1-knockout cells
  H-2Kb-SIINFEKL molecules on sgPtpn6-DC2.4 cells: did not further increase H-2Kb-SIINFEKL molecules
[3]; vs vehicle-treated sgCtrl-DC2.4 cells
  H-2Kb-SIINFEKL molecules on DC2.4 cells: significantly increased H-2Kb-SIINFEKL molecules on DC2.4 cells
[4]; VitE 50 mg/kg/day combined with GVAX+ICT
  antitumor effect (tumor weight): significantly enhanced the antitumor effect
[4]; VitE added to doxorubicin+ICT
  gp70 tetramer-specific CD8+ T cells in tumor: increased the infiltration of tumor-infiltrating gp70) tetramer-specific CD8^+ T cells
[4]; [6]
  survival: substantially prolonged the survival
  tumor growth and lung metastasis: inhibited tumor growth and lung metastasis
[5]
  RAB34 expression in BMDCs: increased total RAB34 expression
